Laboratory results as given in paper PMC12554789, “Benzoxazole Derivatives as Potent FXR and PPARα Dual Agonists With Anti‐Fibrotic and Metabolic Regulatory Effects” (MedComm, 2025).

Experiments:
FXR LBD = molecular target: T1, FXR LBD (Homo sapiens, UniProt Q96RI1); assay: Thermal shift assay, FXR LBD; type: binding; conditions: ligand 20 µM
T1 construct: purchased Sigma SRP2137
T1 sequence (Q96RI1 262-486 limits assumed): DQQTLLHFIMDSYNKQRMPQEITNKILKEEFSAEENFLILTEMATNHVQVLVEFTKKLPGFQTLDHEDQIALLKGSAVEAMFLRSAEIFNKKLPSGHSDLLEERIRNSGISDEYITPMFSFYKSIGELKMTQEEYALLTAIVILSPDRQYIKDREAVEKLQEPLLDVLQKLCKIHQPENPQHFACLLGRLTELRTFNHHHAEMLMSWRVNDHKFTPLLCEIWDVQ

[1] = test system: TAA-induced liver fibrosis model; assay: TAA-induced liver fibrosis mouse model (8 weeks); type: in vivo
Protocol: To further explore the effects on fibrosis suppression, a thioacetamide (TAA)-induced liver fibrosis model was used. Liver fibrosis was induced by intraperitoneal injection of TAA at a dose of 150 mg/kg, administered three times a week for 8 weeks. […] After the treatment period, the mice were euthanized using CO2. Serum was collected for biochemical analysis, and liver tissues were immediately harvested and frozen in liquid nitrogen for subsequent quantitative reverse transcription polymerase chain reaction (qRT-PCR), western blotting, and biological analysis. Furthermore, some liver samples were fixed in 4% paraformaldehyde buffered to neutral pH for histochemical analysis. For long-term storage, remaining liver samples were stored at -80°C in a deep freezer. […] Liver fibrosis was induced by administering TAA intraperitoneally at a dose of 150 mg/kg three times a week for a duration of […]. […] Upon completion of the treatment period, mice were euthanized using CO2, and serum and liver tissue samples were harvested for subsequent evaluation. Serum samples collected from mice were incubated at room temperature for 20 min before being centrifuged at 3000 rpm for 20 min to separate blood cells and clotting factors. Serum alanine transaminase (ALT) and aspartate aminotransferase (AST) activities were measured using ALT and AST assay kits (Asan Pharm, Seoul, Republic of Korea) to assess liver injury. Blood urea nitrogen (BUN) levels in the serum were analyzed using a commercial assay kit ([…]-BUN, […] Diagnostics, Seoul, Republic of Korea; catalog number 1120171) following the manufacturer's guidelines. Creatinine levels in the serum were quantified using the […] assay kit ([…] Diagnostics; catalog number 1120051) in accordance with the manufacturer's instructions. Liver and kidney tissues were processed to detect histological changes through the following procedures. The tissues were fixed in 4% paraformaldehyde, and paraffin-embedded sections were prepared for H&E staining according to standard procedures. […]

PPARα LBD = molecular target: T2, PPARα LBD (Homo sapiens, UniProt Q07869); assay: Thermal shift assay, PPARα LBD; type: binding; conditions: ligand 20 µM
T2 construct: purchased Sigma SRP2054
T2 sequence (Q07869 239-466 limits assumed): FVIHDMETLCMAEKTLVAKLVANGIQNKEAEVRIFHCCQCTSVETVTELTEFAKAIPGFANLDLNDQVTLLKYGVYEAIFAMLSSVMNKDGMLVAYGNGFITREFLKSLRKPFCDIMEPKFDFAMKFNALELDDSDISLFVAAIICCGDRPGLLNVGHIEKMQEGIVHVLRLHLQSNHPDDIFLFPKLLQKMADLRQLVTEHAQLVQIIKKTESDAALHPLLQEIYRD

Structure (SMILES): CC[C@H]1[C@@H](O)[C@@H]2[C@H](CC[C@]3(C)[C@@H]([C@H](C)CCC(=O)O)CC[C@@H]23)[C@@]2(C)CC[C@@H](O)C[C@@H]12 [OCA, obeticholic acid]
- Melting temperature of FXR LBD (FXR LBD): altered
- Damaged hepatocytes (H&E) ([1]; TAA mice): fewer damaged hepatocytes
- Serum AST level ([1]; TAA mice, oral 3 mg/kg daily, increase still higher than in MHY5396 group): smaller increase in AST levels than that in the TAA group
- Protection against fibrosis ([1]; TAA model, MHY5396 versus OCA): protective effects against fibrosis

Structure (SMILES): CC(C)(Oc1ccc(C(=O)c2ccc(Cl)cc2)cc1)C(=O)O [fenofibric acid]
- Melting temperature of PPARα LBD (PPARα LBD): altered
